Source: BindingDB's records for PubMed 20126400 (University of Oklahoma, 2010)
Several values for one entry are separate records, joined by “and”; a condition that tells them apart may be missing. Equal entries are not always repeated.

Columns and labels:
D(3) dopamine receptor = D(3) dopamine receptor (Bos taurus, UniProt F1N454); experiment: Ray2010 Assay 33
Excerpt: 7-OH-DPAT caudate .

[1] = molecular target: Beta-1 adrenergic receptor (Rattus norvegicus, UniProt P18090); experiment: Ray2010 Assay 35
Excerpt: dihydro-alprenalol HCL cortex .

[2] = molecular target: Sigma non-opioid intracellular receptor 1 (Cavia porcellus, UniProt Q60492); experiment: Ray2010 Assay 39
Excerpt: (+)-pentazocine brain Mach et al.1995.

D(2) dopamine receptor = D(2) dopamine receptor (Homo sapiens, UniProt P14416); experiment: Ray2010 Assay 32
Excerpt: YM 09191-2 cloned PDSP web; .

[3] = molecular target: Sigma non-opioid intracellular receptor 1 (UniProt Q58DH7); experiment: Ray2010 Assay 40
Excerpt: (+)-pentazocine caudate .

[4] = molecular target: Gamma-aminobutyric acid receptor subunit alpha-1 (Bos taurus, UniProt P08219); experiment: Ray2010 Assay 70
Excerpt: muscimol cortex .

[5] = molecular target: Sigma intracellular receptor 2 (Rattus norvegicus, UniProt Q5U3Y7); experiment: Ray2010 Assay 42
Excerpt: DTG liver .

[6] = molecular target: 5-hydroxytryptamine receptor 2A (Rattus norvegicus, UniProt P14842); experiment: Ray2010 Assay 25
Excerpt: ketanserin cloned PDSP web; .

Mu-type opioid receptor = Mu-type opioid receptor (Bos taurus, UniProt P79350); experiment: Ray2010 Assay 55
Excerpt: DAGO cortex .

[7] = molecular target: T1, 5-hydroxytryptamine receptor 1A (Homo sapiens, UniProt P08908); experiment: Ray2010 Assay 28
T1 sequence (P08908 whole entry): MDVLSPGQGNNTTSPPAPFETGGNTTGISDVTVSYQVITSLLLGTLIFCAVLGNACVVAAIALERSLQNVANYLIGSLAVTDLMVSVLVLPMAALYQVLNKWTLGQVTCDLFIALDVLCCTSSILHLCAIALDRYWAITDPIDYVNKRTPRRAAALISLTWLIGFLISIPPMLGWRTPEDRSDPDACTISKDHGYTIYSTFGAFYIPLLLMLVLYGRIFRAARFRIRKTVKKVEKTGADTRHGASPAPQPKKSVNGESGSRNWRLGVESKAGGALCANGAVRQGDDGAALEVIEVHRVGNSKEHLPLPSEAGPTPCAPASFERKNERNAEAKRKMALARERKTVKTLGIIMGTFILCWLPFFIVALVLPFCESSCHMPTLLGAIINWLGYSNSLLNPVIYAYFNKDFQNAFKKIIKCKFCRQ
Excerpt: 8-oh-dpat cloned PDSP web; .

[8] = molecular target: Muscarinic acetylcholine receptor (UniProt F1N5C5); experiment: Ray2010 Assay 45
Excerpt: pirenzepine hippocampus .

[9] = molecular target: Muscarinic acetylcholine receptor M3 (Rattus norvegicus, UniProt P08483); experiment: Ray2010 Assay 48
Excerpt: (§1) N-methylacoblamine forebrain .

[10] = molecular target: Muscarinic acetylcholine receptor M2 (Rattus norvegicus, UniProt P10980); experiment: Ray2010 Assay 48
Excerpt: as §1

[11] = molecular target: Muscarinic acetylcholine receptor M2 (Bos taurus, UniProt P41985); experiment: Ray2010 Assay 49
Excerpt: QBN cortex .

[12] = molecular target: T2, Glutamate receptor ionotropic, NMDA 2D (Rattus norvegicus, UniProt Q62645); experiment: Ray2010 Assay 69
Excerpt: dizocilpine forebrain .

D(4) dopamine receptor = molecular target: T3, D(4) dopamine receptor (Homo sapiens, UniProt P21917); experiment: Ray2010 Assay 34
T3 sequence (P21917 whole entry): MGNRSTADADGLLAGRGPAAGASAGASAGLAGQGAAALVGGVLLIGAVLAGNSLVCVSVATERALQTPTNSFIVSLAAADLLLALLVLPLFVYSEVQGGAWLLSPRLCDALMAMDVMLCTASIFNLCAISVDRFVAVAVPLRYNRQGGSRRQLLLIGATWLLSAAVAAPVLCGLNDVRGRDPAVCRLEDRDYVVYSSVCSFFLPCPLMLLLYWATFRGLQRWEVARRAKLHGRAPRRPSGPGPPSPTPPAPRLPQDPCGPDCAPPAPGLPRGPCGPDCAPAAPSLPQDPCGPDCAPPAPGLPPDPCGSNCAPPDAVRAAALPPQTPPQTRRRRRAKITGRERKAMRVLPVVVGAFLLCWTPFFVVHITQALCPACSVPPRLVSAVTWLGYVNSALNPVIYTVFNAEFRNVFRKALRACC
Excerpt: spiperone cloned .

[13] = molecular target: T2, Glutamate receptor ionotropic, NMDA 2D; experiment: Ray2010 Assay 62
Excerpt: MK-801 hippocampus .

[14] = molecular target: T2, Glutamate receptor ionotropic, NMDA 2D; experiment: Ray2010 Assay 68
Excerpt: MK-801 basal forebrain .

[15] = molecular target: T2, Glutamate receptor ionotropic, NMDA 2D; experiment: Ray2010 Assay 66
Excerpt: MK-801 midbrain .

[16] = molecular target: T2, Glutamate receptor ionotropic, NMDA 2D; experiment: Ray2010 Assay 65
Excerpt: MK-801 spinal cord .

[17] = molecular target: T2, Glutamate receptor ionotropic, NMDA 2D; experiment: Ray2010 Assay 64
Excerpt: MK-801 Thalamus + hypothalamus .

[18] = molecular target: Neuronal acetylcholine receptor subunit alpha-4/beta-4 (Homo sapiens, UniProt P43681+P30926); experiment: Ray2010 Assay 74
Excerpt: (§2) Table S2 shows raw Ki data for the current study combined with data collected from the literature for the ten additional compounds.

[19] = molecular target: Neuronal acetylcholine receptor subunit alpha-4/beta-2 (Homo sapiens, UniProt P43681+P17787); experiment: Ray2010 Assay 74
Excerpt: as §2

[20] = molecular target: Neuronal acetylcholine receptor subunit alpha-2/beta-4 (Homo sapiens, UniProt Q15822+P30926); experiment: Ray2010 Assay 74
Excerpt: as §2

[21] = molecular target: Alpha-2B adrenergic receptor (Homo sapiens, UniProt P18089); experiment: Ray2010 Assay 74
Excerpt: as §2

T2 sequence (Q62645 whole entry): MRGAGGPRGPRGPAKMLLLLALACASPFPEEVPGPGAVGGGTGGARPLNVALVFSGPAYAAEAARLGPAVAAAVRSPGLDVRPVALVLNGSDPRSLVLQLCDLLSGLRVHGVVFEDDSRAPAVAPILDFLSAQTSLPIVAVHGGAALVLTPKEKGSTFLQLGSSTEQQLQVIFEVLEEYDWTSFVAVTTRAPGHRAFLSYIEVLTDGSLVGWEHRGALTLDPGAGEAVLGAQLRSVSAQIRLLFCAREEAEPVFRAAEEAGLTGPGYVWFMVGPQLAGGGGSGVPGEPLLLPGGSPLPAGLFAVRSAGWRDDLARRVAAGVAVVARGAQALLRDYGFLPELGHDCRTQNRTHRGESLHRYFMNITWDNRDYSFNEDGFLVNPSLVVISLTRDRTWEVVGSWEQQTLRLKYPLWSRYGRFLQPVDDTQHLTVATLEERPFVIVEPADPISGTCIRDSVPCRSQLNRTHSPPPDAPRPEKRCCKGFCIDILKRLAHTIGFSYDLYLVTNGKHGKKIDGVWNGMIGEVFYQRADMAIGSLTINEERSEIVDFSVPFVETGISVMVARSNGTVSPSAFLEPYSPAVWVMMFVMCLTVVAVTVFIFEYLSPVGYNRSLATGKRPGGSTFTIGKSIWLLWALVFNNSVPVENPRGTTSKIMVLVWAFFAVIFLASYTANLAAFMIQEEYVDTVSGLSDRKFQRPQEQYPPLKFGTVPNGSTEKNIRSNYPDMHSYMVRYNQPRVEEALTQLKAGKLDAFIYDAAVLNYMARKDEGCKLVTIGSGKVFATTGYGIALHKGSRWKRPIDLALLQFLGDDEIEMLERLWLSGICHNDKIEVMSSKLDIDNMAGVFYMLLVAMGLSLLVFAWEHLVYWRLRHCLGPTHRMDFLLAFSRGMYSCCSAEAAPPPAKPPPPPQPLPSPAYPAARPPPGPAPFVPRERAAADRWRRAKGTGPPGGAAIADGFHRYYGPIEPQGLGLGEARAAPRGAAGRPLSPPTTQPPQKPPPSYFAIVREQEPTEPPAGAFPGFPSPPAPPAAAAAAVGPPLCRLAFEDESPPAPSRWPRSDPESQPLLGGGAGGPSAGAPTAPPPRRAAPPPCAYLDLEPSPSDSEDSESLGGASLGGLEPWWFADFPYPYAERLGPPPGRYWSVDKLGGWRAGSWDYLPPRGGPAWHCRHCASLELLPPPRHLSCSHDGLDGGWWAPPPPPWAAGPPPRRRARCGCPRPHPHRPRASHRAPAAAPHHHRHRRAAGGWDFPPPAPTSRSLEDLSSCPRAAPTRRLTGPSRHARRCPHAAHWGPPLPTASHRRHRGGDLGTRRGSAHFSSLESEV
Sequence of Mu-type opioid receptor (P79350 whole entry): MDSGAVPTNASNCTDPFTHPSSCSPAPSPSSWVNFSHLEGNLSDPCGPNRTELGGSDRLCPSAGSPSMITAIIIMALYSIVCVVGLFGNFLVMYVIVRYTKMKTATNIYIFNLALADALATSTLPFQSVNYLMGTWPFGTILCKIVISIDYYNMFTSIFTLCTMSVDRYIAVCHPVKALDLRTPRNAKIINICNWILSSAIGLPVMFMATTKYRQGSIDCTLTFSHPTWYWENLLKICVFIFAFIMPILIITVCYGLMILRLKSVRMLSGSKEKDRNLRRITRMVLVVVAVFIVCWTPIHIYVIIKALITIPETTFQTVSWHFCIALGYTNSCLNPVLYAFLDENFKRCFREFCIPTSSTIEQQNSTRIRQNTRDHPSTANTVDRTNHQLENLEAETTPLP
Sequence of D(2) dopamine receptor (P14416 whole entry): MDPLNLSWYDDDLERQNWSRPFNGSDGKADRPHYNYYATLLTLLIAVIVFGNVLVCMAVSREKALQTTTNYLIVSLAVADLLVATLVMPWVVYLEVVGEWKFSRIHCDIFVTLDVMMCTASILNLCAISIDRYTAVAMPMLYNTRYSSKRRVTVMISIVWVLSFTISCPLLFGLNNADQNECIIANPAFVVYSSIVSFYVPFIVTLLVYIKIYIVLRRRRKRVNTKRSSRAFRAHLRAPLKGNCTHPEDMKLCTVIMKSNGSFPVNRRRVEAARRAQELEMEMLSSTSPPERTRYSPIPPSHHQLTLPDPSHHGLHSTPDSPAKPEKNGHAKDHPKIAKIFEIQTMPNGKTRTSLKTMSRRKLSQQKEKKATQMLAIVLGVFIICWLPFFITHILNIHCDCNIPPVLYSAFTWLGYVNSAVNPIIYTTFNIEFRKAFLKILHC
Sequence of Muscarinic acetylcholine receptor M2 (Bos taurus, UniProt P41985) (P41985 whole entry): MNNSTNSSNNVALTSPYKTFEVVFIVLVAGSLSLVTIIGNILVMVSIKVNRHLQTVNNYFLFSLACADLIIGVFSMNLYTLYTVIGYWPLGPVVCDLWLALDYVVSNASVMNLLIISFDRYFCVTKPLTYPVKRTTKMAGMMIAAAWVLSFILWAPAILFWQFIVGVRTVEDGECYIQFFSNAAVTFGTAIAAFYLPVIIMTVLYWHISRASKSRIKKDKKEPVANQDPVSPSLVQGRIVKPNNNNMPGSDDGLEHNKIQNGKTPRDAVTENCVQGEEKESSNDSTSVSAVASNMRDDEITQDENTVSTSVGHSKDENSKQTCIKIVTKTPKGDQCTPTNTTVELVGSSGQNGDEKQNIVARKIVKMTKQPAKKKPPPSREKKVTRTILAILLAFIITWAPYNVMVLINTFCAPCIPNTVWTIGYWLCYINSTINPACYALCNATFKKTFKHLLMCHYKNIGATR
Sequence of Alpha-2B adrenergic receptor (P18089 whole entry): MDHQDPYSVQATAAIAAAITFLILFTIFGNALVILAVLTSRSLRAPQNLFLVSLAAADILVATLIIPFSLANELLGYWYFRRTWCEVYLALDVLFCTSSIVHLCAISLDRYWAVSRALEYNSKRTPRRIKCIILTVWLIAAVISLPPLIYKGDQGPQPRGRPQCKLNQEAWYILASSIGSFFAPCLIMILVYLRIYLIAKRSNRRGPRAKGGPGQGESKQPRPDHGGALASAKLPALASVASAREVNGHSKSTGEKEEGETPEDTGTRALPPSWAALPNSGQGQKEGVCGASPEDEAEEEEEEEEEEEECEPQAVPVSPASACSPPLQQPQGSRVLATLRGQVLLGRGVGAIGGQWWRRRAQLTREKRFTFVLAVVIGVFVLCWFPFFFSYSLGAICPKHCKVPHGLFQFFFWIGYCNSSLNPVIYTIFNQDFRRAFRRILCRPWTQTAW
Sequence of Sigma intracellular receptor 2 (Q5U3Y7 whole entry): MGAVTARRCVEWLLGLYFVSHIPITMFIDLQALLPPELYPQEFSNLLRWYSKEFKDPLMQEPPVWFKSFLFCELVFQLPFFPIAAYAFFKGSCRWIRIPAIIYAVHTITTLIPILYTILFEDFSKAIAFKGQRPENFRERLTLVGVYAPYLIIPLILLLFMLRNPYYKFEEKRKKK
Sequence of Beta-1 adrenergic receptor (P18090 whole entry): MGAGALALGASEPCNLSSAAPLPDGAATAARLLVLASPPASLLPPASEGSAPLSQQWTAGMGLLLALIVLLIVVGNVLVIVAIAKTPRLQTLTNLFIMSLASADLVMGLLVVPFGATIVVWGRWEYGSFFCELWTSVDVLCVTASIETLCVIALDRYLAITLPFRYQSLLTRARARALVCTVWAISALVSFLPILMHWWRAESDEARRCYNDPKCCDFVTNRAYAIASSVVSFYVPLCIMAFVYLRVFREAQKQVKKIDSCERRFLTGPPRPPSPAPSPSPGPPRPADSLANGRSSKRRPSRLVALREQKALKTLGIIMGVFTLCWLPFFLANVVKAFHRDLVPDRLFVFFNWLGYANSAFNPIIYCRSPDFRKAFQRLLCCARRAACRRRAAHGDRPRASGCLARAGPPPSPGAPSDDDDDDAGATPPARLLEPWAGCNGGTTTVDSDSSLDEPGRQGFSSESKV
Sequence of Muscarinic acetylcholine receptor M2 (Rattus norvegicus, UniProt P10980) (P10980 whole entry): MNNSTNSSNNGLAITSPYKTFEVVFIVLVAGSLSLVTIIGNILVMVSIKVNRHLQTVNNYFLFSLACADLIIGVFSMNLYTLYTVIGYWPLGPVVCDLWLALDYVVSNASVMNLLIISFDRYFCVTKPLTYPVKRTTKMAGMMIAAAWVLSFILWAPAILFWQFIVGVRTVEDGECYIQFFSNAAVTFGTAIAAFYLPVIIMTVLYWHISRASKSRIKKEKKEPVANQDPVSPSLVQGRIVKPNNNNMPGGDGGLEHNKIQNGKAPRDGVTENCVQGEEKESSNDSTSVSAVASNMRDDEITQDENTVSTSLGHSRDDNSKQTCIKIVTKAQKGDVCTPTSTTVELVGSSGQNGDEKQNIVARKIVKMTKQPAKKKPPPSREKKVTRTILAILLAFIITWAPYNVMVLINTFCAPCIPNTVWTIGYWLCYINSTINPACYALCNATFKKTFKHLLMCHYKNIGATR
Sequence of Sigma non-opioid intracellular receptor 1 (UniProt Q58DH7) (Q58DH7 whole entry): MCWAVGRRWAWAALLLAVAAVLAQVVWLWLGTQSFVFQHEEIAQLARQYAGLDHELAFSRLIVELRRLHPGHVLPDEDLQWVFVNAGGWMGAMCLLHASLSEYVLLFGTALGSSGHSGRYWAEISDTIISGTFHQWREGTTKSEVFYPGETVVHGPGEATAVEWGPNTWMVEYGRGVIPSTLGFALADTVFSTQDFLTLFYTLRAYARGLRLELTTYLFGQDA
Sequence of D(3) dopamine receptor (F1N454 whole entry): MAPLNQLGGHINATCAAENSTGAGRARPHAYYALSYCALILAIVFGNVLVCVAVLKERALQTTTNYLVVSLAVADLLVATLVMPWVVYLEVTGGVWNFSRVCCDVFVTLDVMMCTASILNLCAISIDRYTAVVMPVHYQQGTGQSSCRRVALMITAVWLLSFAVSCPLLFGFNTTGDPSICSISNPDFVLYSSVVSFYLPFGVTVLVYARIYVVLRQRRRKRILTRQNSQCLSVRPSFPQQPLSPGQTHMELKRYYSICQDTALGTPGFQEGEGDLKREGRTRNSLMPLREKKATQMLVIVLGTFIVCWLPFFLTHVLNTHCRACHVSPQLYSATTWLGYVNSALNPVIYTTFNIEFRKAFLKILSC

Molecule: CC[C@H]1C[C@@H]2C[C@H]3c4[nH]c5ccc(OC)cc5c4CCN(C2)[C@@H]13
- Ki (D(3) dopamine receptor): 70 µM
- Ki [1]: > 100 µM
- Ki [2]: 9.31 µM
- Ki (D(2) dopamine receptor): > 10 µM
- Ki [3]: 2.5 µM
- Ki [4]: > 100 µM
- Ki [5]: 0.0904 µM
- Ki [6]: > 10 µM
- Ki (Mu-type opioid receptor): 11 µM and 2 µM
- Ki [7]: > 10 µM
- Ki [8]: 31.6 µM
- Ki [9]: 12.5 µM
- Ki [10]: 50.1 µM
- Ki [11]: 31 µM
- IC50 [12]: 3.2 µM
- IC50 (D(4) dopamine receptor): > 100 µM
- Ki [13]: 1.19 µM
- Ki [14]: 3.9 µM
- Ki [15]: 2.46 µM
- Ki [16]: 2.22 µM
- Ki [17]: 1.98 µM

Molecule: CAS_82830-44-2::(2R)-1-(4-iodo-2,5-dimethoxyphenyl)propan-2-amine::DOI,(-)::US20250270173, Compound DOI
- Ki [18]: > 10 µM
- Ki [19]: > 10 µM
- Ki [20]: > 10 µM
- Ki [21]: 0.34 µM
